Drawing on ChEMBL document CHEMBL1268917, “Synthesis and biological evaluation of radio-iodinated benzimidazoles as SPECT imaging agents for NR2B subtype of NMDA receptor” (Bioorg Med Chem, 2010), this text covers Ki for one compound.

This assay addresses Glutamate receptor ionotropic, NMDA 2B (Rattus norvegicus, UniProt Q00960). Description: Displacement of [3H]ifenprodil from NR2B receptor in rat cortical synaptic membranes. The format is cell membranes, Membrane.

Structures are written as SMILES.

Sequence of Glutamate receptor ionotropic, NMDA 2B (Q00960 whole entry): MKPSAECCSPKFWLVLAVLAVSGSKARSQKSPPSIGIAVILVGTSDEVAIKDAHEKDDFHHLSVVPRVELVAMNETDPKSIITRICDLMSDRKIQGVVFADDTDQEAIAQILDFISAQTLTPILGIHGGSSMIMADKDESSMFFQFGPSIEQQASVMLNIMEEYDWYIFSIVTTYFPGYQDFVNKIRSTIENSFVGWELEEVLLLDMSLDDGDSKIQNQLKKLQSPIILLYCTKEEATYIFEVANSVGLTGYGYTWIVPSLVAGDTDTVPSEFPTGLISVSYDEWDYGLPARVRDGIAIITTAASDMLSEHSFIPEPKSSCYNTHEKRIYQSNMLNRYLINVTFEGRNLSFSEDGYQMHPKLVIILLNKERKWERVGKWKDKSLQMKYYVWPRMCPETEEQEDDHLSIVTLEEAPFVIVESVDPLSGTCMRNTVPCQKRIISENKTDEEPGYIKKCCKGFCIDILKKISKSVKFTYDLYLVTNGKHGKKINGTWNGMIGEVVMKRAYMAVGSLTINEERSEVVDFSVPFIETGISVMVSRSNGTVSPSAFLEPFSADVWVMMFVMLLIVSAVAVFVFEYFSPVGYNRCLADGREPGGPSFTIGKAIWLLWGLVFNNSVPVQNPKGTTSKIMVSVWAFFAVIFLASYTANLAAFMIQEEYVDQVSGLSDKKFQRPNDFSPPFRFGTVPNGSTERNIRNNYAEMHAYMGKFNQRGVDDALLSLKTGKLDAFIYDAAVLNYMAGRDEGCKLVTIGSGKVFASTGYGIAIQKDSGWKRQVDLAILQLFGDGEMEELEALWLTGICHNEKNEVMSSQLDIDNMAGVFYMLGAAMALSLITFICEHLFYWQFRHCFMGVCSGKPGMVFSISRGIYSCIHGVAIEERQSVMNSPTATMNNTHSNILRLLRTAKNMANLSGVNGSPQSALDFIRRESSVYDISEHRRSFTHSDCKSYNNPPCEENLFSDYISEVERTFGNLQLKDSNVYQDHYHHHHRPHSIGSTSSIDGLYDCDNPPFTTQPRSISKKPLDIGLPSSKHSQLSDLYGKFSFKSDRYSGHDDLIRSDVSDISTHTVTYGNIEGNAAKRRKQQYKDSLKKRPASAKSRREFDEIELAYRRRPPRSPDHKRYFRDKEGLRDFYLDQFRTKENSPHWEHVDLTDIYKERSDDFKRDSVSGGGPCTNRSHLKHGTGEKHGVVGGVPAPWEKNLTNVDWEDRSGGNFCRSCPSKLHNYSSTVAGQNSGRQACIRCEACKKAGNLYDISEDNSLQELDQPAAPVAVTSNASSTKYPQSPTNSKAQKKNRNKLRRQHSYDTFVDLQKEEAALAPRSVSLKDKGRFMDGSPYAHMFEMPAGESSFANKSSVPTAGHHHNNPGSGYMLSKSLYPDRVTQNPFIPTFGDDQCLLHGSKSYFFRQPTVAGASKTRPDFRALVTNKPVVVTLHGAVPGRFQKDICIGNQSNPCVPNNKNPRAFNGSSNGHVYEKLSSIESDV

Broadly, the Ki is a dissociation constant, usually derived from enzyme kinetics or from competition with a known ligand. High values mean weaker binding, low ones tighter binding. `Oc1ccc2nc(CN3CCC(Cc4ccccc4)CC3)[nH]c2c1`: the Ki came out at 3.09 nM. This counts as single-digit nanomolar.
